# Values quoted from earlier work as cited in patent US8895065B2, “Single unit oral dose pharmaceutical composition comprising levodopa, carbidopa and entacapone or salts thereof” (Wockhardt Ltd., priority 2008, dated 2014).
row,solubility in water,SMILES
1,slightly soluble,C[C@@](Cc1ccc(O)c(O)c1)(NN)C(=O)O [Carbidopa]
2,slightly soluble,"N[C@@H](Cc1ccc(O)c(O)c1)C(=O)O [Levodopa, (−)-L-α-amino-β-(3,4-dihydroxybenzene)propanoic acid]"
